Reference: patent US20090298108A1, “Method for Identifying PDE11 Modulators” (priority 2005, published 2009)
Entries after “also recorded” stand apart in the source; their conditions may differ.

System: PDE11A4/CyaB1-chimera
Assay: Adenylate cyclase activity assay of PDE11A4/CyaB1-chimera (conversion of [α-32P]-ATP to cAMP)
Type: biochemical, human

% basal value (1 mM of cyclic nucleotide, relative to basal enzyme activity): 400%
SMILES: Nc1nc2c(ncn2[C@@H]2O[C@@H]3COP(=O)(O)O[C@H]3[C@H]2O)c(=O)[nH]1 [cGMP]
Classification as PDE11A4-GAF agonist / antagonist (from dose-effect curve, FIG. 5): PDE11A4-GAF agonist; also recorded: selectively activates the GAF domain of PDE11 as agonist
